# Measurements: PubChem BioAssay AID330 (DTP/NCI, 2004)
# “And” between values parts separate entries of the source, which are not always exact repeats. Equal values may be shown once. Inconclusive results and toxic doses are left out.
# Test system: P388 leukemia ip, CD2F1 mice, survival T/C
# Assay: NCI In Vivo Anticancer Drug Screen. Data for tumor model P388 Leukemia (intraperitoneal) in CD2F1 (CDF1) mice
# Settings: endpoint: median survival time, higher = longer survival
# How it was run: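 Mice carrying the transplanted tumor received test compound or vehicle. Survival was recorded in each group, and the value is the treated-group measurement divided by that of the vehicle-treated control group.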
# [1] = dose: 60.0 mg/kg/injection, schedule: Q01DX005 (ip), vehicle: saline with Tween-80
# [2] = dose: 120.0 mg/kg/injection, schedule: Q01DX005 (ip), vehicle: saline with Tween-80
# [3] = dose: 240.0 mg/kg/injection, schedule: Q01DX005 (ip), vehicle: saline with Tween-80
# [4] = dose: 50.0 mg/kg/injection, schedule: Q01DX005 (ip), vehicle: saline with Tween-80
# [5] = dose: 100.0 mg/kg/injection, schedule: Q01DX005 (ip), vehicle: saline with Tween-80
# [6] = dose: 200.0 mg/kg/injection, schedule: Q01DX005 (ip), vehicle: saline with Tween-80
compound,measurement,setting,value
CCOP(=S)(Oc1cnn(C)c(=O)c1OC)OC(C)C (stereo not drawn),T/C,"dose: 0.78 mg/kg/injection, schedule: Q01DX005 (ip), vehicle: saline with Tween-80",98 % of control
same,T/C,"dose: 1.56 mg/kg/injection, schedule: Q01DX005 (ip), vehicle: saline with Tween-80",100 % of control
same,T/C,"dose: 3.13 mg/kg/injection, schedule: Q01DX005 (ip), vehicle: saline with Tween-80",98 % of control
O=C1C=C(N(CCCl)CCCl)C(=O)C=C1N(CCCl)CCCl,T/C,"dose: 50.0 mg/kg/injection, schedule: Q04DX003 (ip), vehicle: Klucel (hydroxypropylcellulose) (HPC)",101 % of control
same,T/C,"dose: 200.0 mg/kg/injection, schedule: Q04DX003 (ip), vehicle: Klucel (hydroxypropylcellulose) (HPC)",178 % of control
N#Cc1c2c(c(=O)n3c1[nH]c1ccccc13)CCCC2,T/C,[1],93 % of control
same,T/C,[2],94 % of control
same,T/C,[3],90 % of control
COc1cc2c3c(c1)-c1c(ccc(OC)c1O)CC3N(C)CC2 (stereo not drawn),T/C,"dose: 6.25 mg/kg/injection, schedule: Q04DX003 (ip), vehicle: DMSO",101 % of control
same,T/C,"dose: 12.5 mg/kg/injection, schedule: Q04DX003 (ip), vehicle: DMSO",101 % of control
same,T/C,"dose: 25.0 mg/kg/injection, schedule: Q04DX003 (ip), vehicle: DMSO",100 % of control
same,T/C,"dose: 50.0 mg/kg/injection, schedule: Q04DX003 (ip), vehicle: DMSO",100 % of control
CCCCCC(=O)C1C(c2ccc(C)cc2)CC(=O)C(CCCC)C1c1ccc(C)cc1 (stereo not drawn),T/C,[4],93 % of control
same,T/C,[5],93 % of control
same,T/C,[6],93 % of control
BrCCc1cc(Br)c(CCBr)cc1Br,T/C,"dose: 50.0 mg/kg/injection, schedule: Q01DX005 (ip), vehicle: Klucel (hydroxypropylcellulose) (HPC)",97 % of control
same,T/C,"dose: 100.0 mg/kg/injection, schedule: Q01DX005 (ip), vehicle: Klucel (hydroxypropylcellulose) (HPC)",97 % of control
same,T/C,"dose: 200.0 mg/kg/injection, schedule: Q01DX005 (ip), vehicle: Klucel (hydroxypropylcellulose) (HPC)",107 % of control
CSc1nc2c(nnn2C2OC(CO)C(O)C(O)C2O)c(=O)n1C (stereo not drawn),T/C,"dose: 60.0 mg/kg/injection, schedule: Q01DX005 (ip), vehicle: saline",97 % of control
same,T/C,"dose: 120.0 mg/kg/injection, schedule: Q01DX005 (ip), vehicle: saline",97 % of control
same,T/C,"dose: 240.0 mg/kg/injection, schedule: Q01DX005 (ip), vehicle: saline",100 % of control
c1ccc2[nH]c(N=Nc3cccc4ccccc34)cc2c1,T/C,"dose: 25.0 mg/kg/injection, schedule: Q01DX009 (ip), vehicle: other",93 % of control and 95 % of control
same,T/C,"dose: 50.0 mg/kg/injection, schedule: Q01DX009 (ip), vehicle: other",100 % of control
same,T/C,"dose: 50.0 mg/kg/injection, schedule: Q01DX009 (ip), vehicle: saline with Tween-80",99 % of control
same,T/C,"dose: 100.0 mg/kg/injection, schedule: Q01DX009 (ip), vehicle: other",100 % of control and 94 % of control
same,T/C,"dose: 100.0 mg/kg/injection, schedule: Q01DX009 (ip), vehicle: saline with Tween-80",108 % of control and 115 % of control
same,T/C,"dose: 200.0 mg/kg/injection, schedule: Q01DX009 (ip), vehicle: other",98 % of control and 100 % of control
same,T/C,"dose: 200.0 mg/kg/injection, schedule: Q01DX009 (ip), vehicle: saline with Tween-80",115 % of control
same,T/C,"dose: 400.0 mg/kg/injection, schedule: Q01DX009 (ip), vehicle: saline with Tween-80",98 % of control
COC(=O)c1cn(C2OC(CO)C(O)C2O)c2ncnc(N)c12 (stereo not drawn),T/C,"dose: 3.75 mg/kg/injection, schedule: Q01DX005 (ip), vehicle: saline with Tween-80",103 % of control
same,T/C,"dose: 7.5 mg/kg/injection, schedule: Q01DX005 (ip), vehicle: saline with Tween-80",104 % of control
same,T/C,"dose: 15.0 mg/kg/injection, schedule: Q01DX005 (ip), vehicle: saline with Tween-80",117 % of control and 98 % of control
same,T/C,[1],100 % of control
COC(=O)c1ccccc1NC(=O)N1CC1,T/C,"dose: 50.0 mg/kg/injection, schedule: Q01DX005 (ip), vehicle: DMSO",105 % of control
same,T/C,"dose: 100.0 mg/kg/injection, schedule: Q01DX005 (ip), vehicle: DMSO",118 % of control
O=S1(=O)OCc2ccccc21,T/C,"dose: 12.5 mg/kg/injection, schedule: Q01DX009 (ip), vehicle: Klucel (hydroxypropylcellulose) (HPC)",98 % of control
same,T/C,"dose: 25.0 mg/kg/injection, schedule: Q01DX009 (ip), vehicle: Klucel (hydroxypropylcellulose) (HPC)",100 % of control
same,T/C,"dose: 50.0 mg/kg/injection, schedule: Q01DX009 (ip), vehicle: Klucel (hydroxypropylcellulose) (HPC)",107 % of control
same,T/C,"dose: 100.0 mg/kg/injection, schedule: Q01DX009 (ip), vehicle: Klucel (hydroxypropylcellulose) (HPC)",117 % of control
CC1(O)C2CCCCC2C2CCCCC2C1(C)O (stereo not drawn),T/C,[4],101 % of control
same,T/C,[5],100 % of control
same,T/C,[6],103 % of control
C=CCC(NC(=O)CC)C(=O)O (stereo not drawn),T/C,"dose: 50.0 mg/kg/injection, schedule: Q01DX009 (ip), vehicle: saline",92 % of control
same,T/C,"dose: 100.0 mg/kg/injection, schedule: Q01DX009 (ip), vehicle: saline",92 % of control
same,T/C,"dose: 200.0 mg/kg/injection, schedule: Q01DX009 (ip), vehicle: saline",103 % of control
Cc1nc(Nc2ccccc2)c2c(C)c(C)[nH]c2n1,T/C,[1],103 % of control
same,T/C,[2],102 % of control
same,T/C,[3],98 % of control
